Results published in ChEMBL document CHEMBL1126815, “Synthesis and squalene synthetase inhibitory activity of tripotassium 1-methyl-1-[(N-benzyl-N-farnesyl)aminoethylphosphinato]ethylphosphonate as a tethered analog of N-benzyl-N-farnesylamine-inorganic pyrophosphate ion pair” (Bioorg Med Chem Lett, 1993).

Molecular target: T1, Squalene synthase (Rattus norvegicus, UniProt Q02769)
T1 sequence (Q02769 whole entry): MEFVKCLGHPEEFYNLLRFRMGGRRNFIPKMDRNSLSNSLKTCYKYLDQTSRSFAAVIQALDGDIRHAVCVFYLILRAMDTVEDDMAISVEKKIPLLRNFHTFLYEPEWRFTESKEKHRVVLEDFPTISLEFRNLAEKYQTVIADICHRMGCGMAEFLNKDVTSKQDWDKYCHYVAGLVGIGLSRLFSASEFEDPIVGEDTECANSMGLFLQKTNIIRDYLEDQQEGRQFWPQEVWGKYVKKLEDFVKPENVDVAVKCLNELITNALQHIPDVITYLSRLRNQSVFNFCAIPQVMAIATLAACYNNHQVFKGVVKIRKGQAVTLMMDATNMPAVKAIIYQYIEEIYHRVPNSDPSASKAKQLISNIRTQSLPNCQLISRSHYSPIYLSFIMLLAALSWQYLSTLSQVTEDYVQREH
Assay: Tested for the squalene synthetase inhibitory activity in rat liver microsomal assay
Type: microsomes

| SMILES | IC50 |
| --- | --- |
| CC(C)=CCC/C(C)=C/CC/C(C)=C/CNCc1ccccc1.O=P(O)(O)OP(=O)(O)O | 10 nM |
| CC(C)=CCC/C(C)=C/CC/C(C)=C/CN(CCP(=O)(O)C(C)(C)P(=O)(O)O)Cc1ccccc1 | 20 nM |
